# Source: patent US6593310B1, “Treatment of osteoporosis” (Arthropharm Pty. Ltd., priority 2000, dated 2003)
# What was measured:
# spinal fracture = conditions: post-menopausal women; cited from earlier work
# bone = assay: treatment of mammals with polysulfated polysaccharides, effect on bone; assay type: in vivo
compound,measurement,setting,value
"NCCCC(O)(P(=O)(O)O)P(=O)(O)O [Fosamax, alendronate]",reduction of risk of spinal fracture,spinal fracture,~50%
calcium pentosan polysulfate,occurrence or spread of osteoporosis,"bone; low dosages producing blood levels of 0.01 to 100 micrograms per ml, low continuous or high pulsed therapy dose",reduces the occurrence or spread of osteoporosis
pentosan polysulfate,effect on bone (bone fragility),"bone; high repeated dosages, mammals",causes bone fragility
